{
  "source": "patent US20240374879A1",
  "about": "“METHODS AND COMPOSITIONS TO REDUCE CELLULAR DEPOSITION, AND HYDROCEPHALUS SHUNT FAILURE” (Wayne State University, priority 2021, published 2024)",
  "key": {"[1]": {"test_system": "A1 reactive astrocytes", "test": "A1 reactive astrocyte attachment on PDMS coated plates (targeted drug delivery)", "assay_type": "cell-based, mouse", "conditions": "30 ng/ml, 48 h", "procedure": "Purification of astrocytes by immunopanning: Astrocytes were purified by immunopanning from post-natal day (P) 5 mouse brains and cultured as previously described (Foo et al., Neuron. 71(5):799-811, 2011). Cerebral cortices were dissected and enzymatically digested using papain at 37° C. and 10% CO2. Tissue was then mechanically triturated with a serological pipette at RT to generate a single-cell suspension. The suspension was filtered and negatively panned for microglia/macrophage cells (CD45), oligodendrocyte progenitor cells (04 hybridoma), and endothelial cells (L1) followed by positive panning for astrocyte cells (ITGB5). Astrocytes were cultured in defined, serum-free medium containing 50% neurobasal, 50% DMEM, 100 U/mL penicillin, 100 μg/mL streptomycin, 1 mM sodium pyruvate, 292 μg/mL L-glutamine, 1×SATO, 5 μg/mL of N-acetyl cysteine, and 5 ng/mL HBEGF.\nTargeted drug delivery: A1 reactive astrocytes were generated by culturing the purified astrocytes on PDMS coated tissue culture plates and then treating for 24 h with IL-1α (3 ng/ml, Sigma, 13901), TNF-α (30 ng/ml, Cell Signaling Technology, 8902SF), and C1q (400 ng/ml, MyBioSource, MBS143105). […]"}, "[2]": {"test_system": "A2 reactive astrocytes", "test": "A2 reactive astrocyte attachment on PDMS coated plates (targeted drug delivery)", "assay_type": "cell-based, mouse", "conditions": "30 ng/ml, 48 h; FIG. 5B"}},
  "data": [
    {"substance": "TGF-β", "values": [
      {"measurement": "A1 astrocyte reactive state", "setting": "[1]", "result": "reset A1 astrocytes to a non-reactive state"},
      {"measurement": "attachment of A1 astrocytes on PDMS coated surfaces", "setting": "[1]; FIG. 5A", "result": "significantly reducing"},
      {"measurement": "attachment of A2 astrocytes on PDMS coated surfaces", "setting": "[2]", "result": "did not induce"}
    ]}
  ]
}
